Results on 13 molecules are retold here after paper PMC6478789, “A chemical toolbox for the study of bromodomains and epigenetic signaling” (Nature Communications, 2019).

One assay concerns the target BRDT(2) (Homo sapiens, UniProt Q58F21). Description: BROMOscan ligand-binding assay.
A further assay has as its target T1, BRPF3 (Homo sapiens, UniProt Q9ULD4).
T1 sequence (Q9ULD4 589-693 limits assumed): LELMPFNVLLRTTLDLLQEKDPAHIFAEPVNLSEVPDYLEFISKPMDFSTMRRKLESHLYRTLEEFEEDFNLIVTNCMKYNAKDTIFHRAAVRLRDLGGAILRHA
Description: BROMOscan ligand-binding assay.

The next assay concerns the target BRD2(2) (Homo sapiens, UniProt P25440). As to the kind of experiment: BROMOscan ligand-binding assay.
The next assay addresses BRD3(2) (Homo sapiens, UniProt Q15059). Description: BROMOscan ligand-binding assay.
Another assay has as its target PBRM1(5) (Homo sapiens, UniProt Q86U86). As to the kind of experiment: BROMOscan ligand-binding assay.
The next assay concerns the target T2, BAZ1B (Homo sapiens, UniProt Q9UIG0).
T2 sequence (Q9UIG0 1339-1443 limits assumed): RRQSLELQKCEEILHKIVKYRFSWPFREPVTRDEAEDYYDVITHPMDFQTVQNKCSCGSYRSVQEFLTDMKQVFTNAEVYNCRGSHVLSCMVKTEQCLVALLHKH
As to the kind of experiment: BROMOscan ligand-binding assay.

The next assay deals with T3, TRIM24(PHD,BRD) (Homo sapiens, UniProt O15164).
T3 sequence (O15164 824-1006 limits assumed): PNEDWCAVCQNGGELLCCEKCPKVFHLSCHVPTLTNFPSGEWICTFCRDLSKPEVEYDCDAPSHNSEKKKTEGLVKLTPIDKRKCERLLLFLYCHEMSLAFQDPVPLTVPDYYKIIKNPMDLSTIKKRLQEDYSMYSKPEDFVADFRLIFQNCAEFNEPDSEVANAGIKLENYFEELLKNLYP
As to the kind of experiment: BROMOscan ligand-binding assay.

In a further assay the target is BRPF1 (Homo sapiens, UniProt P55201). Description: Temperature shift assay (non-BRD reader domains). Particulars: 10µM compound. The assay is classed as binding.
Sequence of BRPF1 (P55201 1085-1168 limits assumed, species assumed): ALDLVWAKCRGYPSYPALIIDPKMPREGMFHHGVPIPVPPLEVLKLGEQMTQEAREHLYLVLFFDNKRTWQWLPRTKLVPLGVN
Where [1] appears, read: KD (BROMOscan), sheet prints no unit (nM).

Where two headings read alike, the source gives them in different places.

Sequence of BRD2(2) (P25440 344-453 limits assumed): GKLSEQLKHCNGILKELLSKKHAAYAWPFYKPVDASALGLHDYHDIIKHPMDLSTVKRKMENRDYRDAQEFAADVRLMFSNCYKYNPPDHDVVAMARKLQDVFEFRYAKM
Sequence of PBRM1(5) (Q86U86 653-763 limits assumed): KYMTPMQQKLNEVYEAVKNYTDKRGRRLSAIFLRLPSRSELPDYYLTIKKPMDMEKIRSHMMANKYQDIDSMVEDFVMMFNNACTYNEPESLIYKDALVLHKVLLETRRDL
Sequence of BRD3(2) (Q15059 306-415 limits assumed): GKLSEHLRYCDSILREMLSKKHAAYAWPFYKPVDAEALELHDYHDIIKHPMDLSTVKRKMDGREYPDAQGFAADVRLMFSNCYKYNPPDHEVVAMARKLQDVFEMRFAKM
Description for BAZ1B: (§1) BROMOscan is a binding assay based on the well-known KINOMEscan technology. This assay measures the binding of a DNA-tagged bromodomain to an immobilized BRD ligand. If an inhibitor is present, it will compete with the bromodomain binding to the immobilized ligand, resulting in reduction of a quantitative PCR (qPCR) signal in a dose-dependent manner.
Description for BRD2(2): as §1
Description for BRD3(2): as §1
Description for BRDT(2): as §1
Description for BRPF3: as §1
Description for PBRM1(5): as §1
Description for TRIM24(PHD,BRD): as §1

Turning to `COc1ccc(CCc2nc3cc(-c4c(C)noc4C)ccc3n2C[C@H](C)N2CCOCC2)cc1Cl` [SGC-CBP30], the Kd is more than 30000 nM at BRDT(2) (setting [1]); more than 100000 nM on BRDT(2) (KD, BROMOscan, BRDT(2)); more than 30000 nM at BRPF3 (setting [1]); more than 100000 nM at BRPF3 (KD, BROMOscan, BRPF3); 2.4 µM at BRD2(2); 2300 nM at BRD3(2) (KD, BROMOscan, BRD3(2)). Besides, the Kd is 49700 nM on PBRM1(5) (KD, BROMOscan, PBRM1(5)); more than 30000 nM at BAZ1B (setting [1]); more than 100000 nM on BAZ1B (KD, BROMOscan, BAZ1B); 6500 nM on TRIM24(PHD,BRD) (KD, BROMOscan, TRIM24(PHD,Bromo.)).
Consider `CCCOc1ccn2c(C(C)=O)cc(-c3ccccc3S(C)(=O)=O)c2c1` [GSK2801], for which the Kd at BRDT(2) (KD, BROMOscan Gene Symbol BRDT(2)) is 67000 nM; at BRPF3 (KD, BROMOscan Gene Symbol BRPF3), 15000 nM; on BRD2(2), 22 µM; at BRD3(2) (KD, BROMOscan Gene Symbol BRD3(2)), 13000 nM; on PBRM1(5) (setting [1]) it was more than 30000 nM; on PBRM1(5) (KD, BROMOscan Gene Symbol PBRM1(5)) it was more than 100000 nM. The Kd on BAZ1B (setting [1]) was more than 30000 nM; on BAZ1B (KD, BROMOscan Gene Symbol BAZ1B), more than 100000 nM; on TRIM24(PHD,BRD) (KD, BROMOscan Gene Symbol TRIM24(PHD,Bromo.)), 33000 nM.
As for `Cc1noc(C)c1-c1ccc2c(c1)nc(CCc1ccccc1)n2CCN1CCOCC1` [CBP30-298], the Kd on BRDT(2) (BROMOscan Gene Symbol BRDT(2)) is 6800 nM; at BRPF3 (BROMOscan Gene Symbol BRPF3), more than 50000 nM; at BRPF3 (read-out: KD (BROMOscan), sheet prints no unit (nM)) it was more than 30000 nM; on BRD2(2) (BROMOscan Gene Symbol BRD2(2)) it was 1.8 µM; at BRD3(2) (BROMOscan Gene Symbol BRD3(2)), 1600 nM; at TRIM24(PHD,BRD) (BROMOscan Gene Symbol TRIM24(PHD,Bromo.)), 17000 nM.
As for `O=C(C=CN1CC2CC1CN2c1ccccn1)c1ccccc1O` (stereo not drawn) [PFI-3], the Kd at BRDT(2) (setting [1]) was more than 30000 nM; at BRDT(2) (KD, BRDT(2)), more than 100000 nM; on BRPF3 (setting [1]), more than 30000 nM; on BRPF3 (KD, BRPF3) it was more than 100000 nM; at BRD3(2) (setting [1]), more than 30000 nM; on BRD3(2) (KD, BRD3(2)), more than 100000 nM. For the same molecule, the Kd at BAZ1B (setting [1]) was more than 30000 nM; on BAZ1B (KD, BAZ1B), more than 100000 nM; on TRIM24(PHD,BRD) (setting [1]), more than 30000 nM; on TRIM24(PHD,BRD) (KD, TRIM24(PHD,Bromo.)), more than 100000 nM.
As for `CN(C)CCCOc1ccc(-c2cc(NCCCn3cccn3)nc(S(C)(=O)=O)n2)cc1` [TP-238], on BRPF1, the “Tm (C) 10µM, temperature shift” value was -0.3 Kelvin.
As to `O=C(O)c1ccccc1O` [Salicylic Acid], the Kd at BRDT(2) (KD, BRDT(2)) is more than 1.4e+07 nM; at BRPF3 (KD, BRPF3) it was more than 1.4e+07 nM; on BRD2(2), more than 14000 µM; on PBRM1(5) (KD, PBRM1(5)) it was 160000 nM; at BAZ1B (KD, BAZ1B), more than 1.4e+07 nM; on TRIM24(PHD,BRD) (KD, TRIM24(PHD,Bromo.)), more than 1.4e+07 nM.
For `COc1cc2c(cc1NS(=O)(=O)c1ccc(Br)cc1C)n(C)c(=O)n2C` [OF-1], the equilibrium dissociation constant (Kd) at BRDT(2) (BRDT(2)) stood at 22000 nM; on BRD2(2) (BRD2(2)), 10 µM; on BRD3(2) (BRD3(2)), 16000 nM; at PBRM1(5) (PBRM1(5)), 4500 nM; on TRIM24(PHD,BRD) (TRIM24(PHD,Bromo.)), 4500 nM.
Regarding `Cc1c(NC(=O)c2cc(C(N)=O)nc3cc(F)ccc23)c(C(F)(F)F)nn1Cc1ccc(C(C)(C)C)cc1` [BAY-588], on BRPF1, the “Tm (C) 10µM, temperature shift” value is on record as -0.2 Kelvin.
Consider `COc1cc(C#N)ccc1S(=O)(=O)Nc1ccc2c(c1)cc(C)c(=O)n2C` [NI 57], for which the Kd at BRDT(2) (BRDT(2)) is more than 50000 nM; at BRD2(2) (BRD2(2)), more than 50 µM; at BRD3(2) (BRD3(2)), more than 50000 nM; on PBRM1(5) (PBRM1(5)) it was 11000 nM; on TRIM24(PHD,BRD) (TRIM24(PHD,Bromo.)), 5600 nM.
Consider `Cc1c(NC(=O)c2cc(C(N)=O)nc3cc(F)ccc23)c(C(F)(F)F)nn1Cc1ccc(C#N)cc1` [BAY-876], for which, at BRPF1, the “Tm (C) 10µM, temperature shift” value is -0.3 Kelvin.
`O=C(C=CN1[C@H]2CC[C@@H]1c1ncnc(NC3CC3)c1C2)c1ccccc1O` [PFI-3 D1]: the dissociation constant Kd was more than 30000 nM on BRDT(2) (BROMOscan, BRDT(2)); more than 30000 nM on BRPF3 (BROMOscan, BRPF3); more than 30 µM on BRD2(2) (BROMOscan, BRD2(2)); more than 30000 nM on BRD3(2) (BROMOscan, BRD3(2)); 36 nM at PBRM1(5) (BROMOscan, PBRM1(5)); more than 30000 nM on TRIM24(PHD,BRD) (BROMOscan, TRIM24(PHD,Bromo.)).
Regarding `CCCS(=O)(=O)c1nc(NC2CC2)cc(-c2ccc3c(ccn3C3CC(C)(C)NC(C)(C)C3)c2)n1` [NVS-CECR2-1], the Kd on BRDT(2) is more than 30000 nM; on BRPF3, more than 30000 nM; on BRD2(2), more than 30 µM; on BRD3(2), more than 30000 nM; on PBRM1(5), more than 30000 nM; at TRIM24(PHD,BRD) it was more than 30000 nM.
Consider `Cc1cc(=O)n(C)c2cc(N3C(=O)CC[C@H](NS(=O)(=O)CC(C)C)[C@H]3c3ccc(Cl)cc3)ccc12` [LP-99], for which the Kd at BRDT(2) (BROMOscan, BRDT(2)) is 33000 nM; on BRPF3 (BROMOscan, BRPF3), more than 50000 nM; at BRD2(2) (BROMOscan, BRD2(2)), 9.2 µM; at BRD3(2) (BROMOscan, BRD3(2)) it was more than 50000 nM; on PBRM1(5) (BROMOscan, PBRM1(5)), more than 50000 nM; on TRIM24(PHD,BRD) (BROMOscan, TRIM24(PHD,Bromo.)) it was more than 50000 nM.

One may read the Kd as the equilibrium constant for the complex coming apart.
